The source of these data is patent publication US20130303490A1, “Inhibitors of HIV Infections and uses thereof” (Centre National De La Recherche Scientifique-CNRS, priority 2010, published 2013).

The subject of assay [1] is Ad8-luc virus in HOS CCR5 lacZ line. As to the kind of experiment: Infection of HOS CCR5 lacZ cells (not expressing S1PR1) with Ad8-luc virus (luciferase activity). The format is cell-based, HIV-1.
In assay [2] the test system is HIV-1 strain JR-CSF (R5 strain). The experiment in a line: Humanized SCID mice (hu-PBL-SCID) infected with HIV-1, viral load by qPCR. Format: in vivo, mouse (SCID, grafted with human PBMCs). As to conditions: FTY720 0.3 mg per kg per day by gavage from D-1, viral load D6, 9, 12; p=0.023 (FIG. 6). The method, then: SCID mice have the cb17/Icr-Prkdc^scid/Crl genotype. These immunodepressed mice are housed in an A3/L3 animal house in cages with a filter lid, in a ventilated cage rack. After one week of acclimatization, the animals are reconstituted by intraperitoneal injection of 30×10^6 PBMCs obtained by density centrifugation of the leukocytes of an uncertified cytapheresis annulus from a healthy volunteer donor. The reconstitution is evaluated on the 13th day by assaying the human immunoglobulins (Igs) present in the serum of the mice by means of an Elisa assay using the anti-human whole Ig-PO antibody (MP Biomedical, cat n° 55230). The mice whose total Ig concentration is greater than 100 μg/ml are kept for the experiment, and are infected 14 days after the reconstitution with the HIV-1 strain JR-CSF (R5 strain) at 1000 TCID50 in 100 μl. Daily gavage with 100 μl of FTY720 (Cayman, sold by Interchim ref. BM8045) dissolved at 60 μg/ml in distilled water is begun one day before the infection and continued for 12 days. The untreated mice are given the same volume of distilled water by gavage. […] The viremies are evaluated by quantification of the viral ARN in the plasma of the mice by qPCR with the AmpliPrep/COBAS TaqMan HIV-1 test (Roche Diagnostics, ref. 05212294190). […]
Background: Quantitative PCR measures a nucleic acid by following its amplification.

Assay [3] deals with Ad8-luc virion (nonreplicative R5-pseudotyped HIV-1) in HEK-293T CD4+ CCR5+ cells. The experiment in a line: Infection of S1PR1-transfected HEK-293T CD4+ CCR5+ cells with Ad8-luc virion (luciferase activity). The format is cell-based.
Description: In order to test the influence of the expression of S1PR1 on infection with HIV-1, 50 000 HEK-293T CD4+ CCR5+ cells were transiently transfected by lipofection, by incubating them for 24 hours with a mixture of 50 ng of CMV-S1PR1 plasmid, 20 ng of the pRL-TK-Renilla Luciferase plasmid (Promega) and 0.5 μl of lipofectamine (Lipofectamine™ 2000, Invitrogen) in 150 μl of DMEM medium, 10% FCS, in a 96-well plate, incubated beforehand with a solution of D-polylysine for 30 min. […] 24 h after the transfection, the wells are washed with DMEM (BioWhittaker), and then the cells are infected with 40 ng of the Ad8-luc virion in 180 μl of culture medium. […] 24 h after the infection, the cells are washed once with culture medium, and put back in culture with 200 μl of DMEM, 10% FCS. 40 h to 48 h after the infection, the cells are washed once with PBS, and lysed with 50 μl of buffer, and then the Firefly and Renilla luciferase activities are measured sequentially in a luminometer using the Dual-Luciferase® Reporter Assay system (Promega, cat: E1910). The Renilla luciferase activity is used as a measure of the level of cell metabolism.
Assay [4] has as its system Ad8-luc virus in peripheral blood mononuclear cells (PBMCs). As to the kind of experiment: Infection of PBMCs with Ad8-luc virus (luciferase activity). The format is cell-based, HIV-1. The method, then: The HOS-CD4 line (AIDS Reagent Program, Rockville, Md.) and the HEK-293T line (simian virus 40 T antigen-transformed human embryonic kidney 293T, Genethon) are cultured in DMEM medium supplemented with 10% of FCS (fetal calf serum), 10 mM of glutamax-1, 100 U/ml of penicillin and 100 μg/ml of streptomycin. The HEK-293T CD4+ CCR5+ line (gift from Martine Biard-Piechaczyk, Institute of Biology, Montpellier, France) was obtained by transfection of CD4 and CCR5 genes using the HEK-293T line. The human PBMCs in culture are isolated from blood of healthy donors by density centrifugation on lymphocyte separation medium (Eurobio) and cultured in RPMI medium supplemented like the DMEM at 37° C., 5% CO2.

Setting [5] is: HOS CCR5 lacZ cells not expressing S1PR1, 33 μM preincubation for one hour (FIG. 3), p<0.01.

“Also recorded” adds a separate entry of the source. Where two headings read alike, the source gives them in different places.

What is called inhibition is the share of the control response that was lost under treatment.

For the molecule `CCCCCCCCc1ccc(CCC(N)(CO)CO)cc1.Cl` [FTY720, 2-amino-2-[2-(4-octylphenyl)ethyl]propane-1,3-diol], the “decrease of the HIV infection” value in assay [1] (setting [5]) is reported as “approximately 50%”. Besides, the “viremia / infection of the treated animals versus untreated group” value in assay [2] is recorded as “clear decrease in viremia; also recorded: significant decrease”.

Take `CCCCCCCCc1ccc(CC[C@](N)(CO)COP(=O)(O)O)cc1` [FTY720-P]: the “decrease of the HIV infection” value in assay [1] was “approximately 50%”. Moreover, the “reduction of infection compared with the empty plasmid control” value in assay [3] (S1PR1-expressing HEK-293T CD4+ CCR5+ cells, FTY720-P 80 ng/ml for 30 min before addition of the virus, unstimulated S1PR1 alone gives 60%) is on record as 90%. For the same molecule, the “inhibition of the infection” value in assay [4] (PBMCs from a healthy donor, 1 μM preincubation, Ad8-luc for 72 h (FIG. 4)) was “approximately 60%”.

As to `FC(F)(F)c1cccc(-c2noc(-c3cc(-c4ccccc4)c(C(F)(F)F)s3)n2)c1` [SEW2871], in assay [1] (setting [5]), the “decrease of the HIV infection” value was “No significant difference; also recorded: does not significantly modify the infection”.

Consider `CCCCCCCCCCCCC/C=C/[C@@H](O)[C@@H](N)COP(=O)(O)O` [Sphingosine-1-phosphate, sphingosine-1-phosphate], for which, in assay [1] (setting [5]), the “decrease of the HIV infection” value is “approximately 50%”. Moreover, the inhibition at 1 µM in assay [4] (Human immunodeficiency virus 1, PBMC, read-out: inhibition of the infection) was about 60%.

B1: MIP1-β: a CCR5 ligand known to inhibit HIV infection (R&D systems) (protein, UniProt P13236 24-92, looked up)
C-C motif chemokine 4: APMGSDPPTACCFSYTARKLPRNFVVDYYETSSLCSQPAVVFQTKRSKQVCADPSESWVQEYVYDLELN
For the molecule B1, the “decrease in infection compared with that of FTY720-P” value in assay [3] (same conditions, anti-CCR5 antibody 10 μg/ml, MIP-1β 100 ng/ml, 30 min before infection) is recorded as “of the same level”.
